In patent publication US10913757B2, “Hydroxycinnamic derivatives, methods and uses thereof” (UNIVERSIDADE DO PORTO, priority 2016, dated 2021):

Tests used:
[1] = Iron (II) chelating properties, ferrozine assay; type: biochemical; conditions: 100 μM, EDTA=100%, FIG. 2
Method: In an embodiment, AntiOxCINs iron (II) chelating properties were evaluated by the ferrozine assay using ethylenediaminetetracetic acid (EDTA) as reference.
In an embodiment, AntiOxCINs iron chelating properties were evaluated by the spectrophotometric ferrozine method performed in a multiplate reader (Powerwave XS Microplate Reader) of Bio-Tech instruments.
In an embodiment, the AntiOxCINs iron chelating properties were evaluated as follows: in each well, a solution of the test compound (100 μM) and ammonium iron (II) sulphate in ammonium acetate (20 μM) were added, incubated for 10 min and the absorbance was read at 562 nm. Then, a freshly prepared solution of ferrozine (5 mM) was added to each well (96 μM final concentration). After a new incubation at 37° C. for 10 min period, the absorbance of [Fe(ferrozine)3]^2+ complex was measured at 562 nm. Blank wells were run using DMSO instead of the test compounds. EDTA was used as a reference. All compounds were tested at a final concentration of 100 μM. The absorbance of the first reading was subtracted to the final values to abolish any absorbance due to the test compounds. Data are means±SEM of three independent experiments and are expressed as % of Fe(II) chelation (EDTA=100%).

[2] = tested on: rat liver mitochondria (RLM) membranes; experiment: RLM lipid peroxidation, TBARS assay (FeSO4/H2O2/ascorbate); type: biochemical; conditions: 5 μM pre-incubation, FIG. 4A
Method: In an embodiment, and as an example, AntiOxCINs antioxidant performance, on the protection of lipid peroxidation of RLM membranes was determined. Two different oxidative stressor agents, FeSO4/H2O2/ascorbate and ADP/FeSO4, and two end-points, TBARS production and oxygen-consumption, respectively, have been used. MitoQ was used as reference (FIGS. 4 and 5).
In an embodiment, the evaluation of AntiOxCINs functional mitochondrial toxicity profile was performed in rat liver mitochondria (RLM). RLM were prepared by tissue homogenization followed by differential centrifugations in ice-cold buffer containing 250 mM sucrose, 10 mM HEPES (pH 7.4), 1 mM EGTA, and 0.1% fat-free bovine serum albumin. […] The protein concentration was determined by the biuret assay using BSA as a standard.
In an embodiment, the effect of AntiOxCINs on RLM lipid peroxidation was measured by thiobarbituric acid reactive species (TBARS) assay as follows: RLM (2 mg protein/ml) were incubated in 0.8 mL medium containing 100 mM KCl, 10 mM Tris-HCl and pH 7.6, at 37° C., supplemented with 5 mM glutamate/2.5 mM malate as substrate. […] The fluorescence of aliquots (250 μL) of the organic layer was analyzed in a plate reader (λEx=515 nm; λEm=553 nm) for TBARS. […] Data are means±SEM of three independent experiments and are expressed as % of control (control=100%).

[3] = tested on: rat liver mitochondria (RLM); experiment: Mitochondrial respiration of isolated RLM (Clark-type oxygen electrode); type: biochemical
Method: (§1) In an embodiment, and as an example, AntiOxCINs and MitoQ toxicity effects on the mitochondrial bioenergetics, namely on RLM ΔΨ and mitochondrial respiration parameters, were measured. The […] represents the main component of the electrochemical gradient generated by mitochondrial respiration and accounts for more than 90% of the total available energy. For mitochondrial respiration assays, glutamate/malate (for complex I) and succinate (for complex II) were used as substrates. In addition, the mitochondrial oxidative phosphorylation coupling index, known as respiratory control ratio (RCR, state 3/state 4 respiration) and ADP/O index (the coupling between ATP synthesis and oxygen consumption) were also calculated. AntiOxCINs and MitoQ were tested at antioxidant-relevant concentrations, with 10 μM being the highest concentration.
(§2) In an embodiment, the evaluation of AntiOxCINs functional mitochondrial toxicity profile was performed in rat liver mitochondria (RLM). […] The protein concentration was determined by the biuret assay using BSA as a standard.
In an embodiment, the evaluation of AntiOxCINs effect on mitochondrial respiration was performed as follows: the respiration of isolated RLM was evaluated polarographically with a Clark-type oxygen electrode, connected to a suitable recorder in a 1 mL thermostated water-jacketed chamber with magnetic stirring, at 37° C.^1. […] Increasing concentrations of AntiOxCINs (2.5-10 μM) were added to the reaction medium containing respiratory substrates glutamate/malate (10 mM and 5 mM respectively) or succinate (5 mM) and RLM (1 mg) and allowed to incubate for a 5 min period prior to the assay. State 2 was considered as the respiration during the 5 min incubation time with AntiOxCINs. […] State 4 was determined after ADP phosphorylation finished. Subsequent addition of oligomycin (2 μg/ml) inhibited ATP-synthase and originated the oligomycin-inhibition respiration state. Finally, 1 μM FCCP was added to induce uncoupled respiration.

[4] = tested on: rat liver mitochondria (RLM); experiment: Mitochondrial transmembrane electric potential (ΔΨ) of RLM, safranine fluorescence; type: biochemical
Method: as §1, §2
Then, 1 μM FCCP was added at the end of all experiments to depolarize mitochondria. ΔΨ was calculated using a calibration curve obtained when RLM were incubated in a K^+-free reaction medium containing 200 mM sucrose, 1 mM NaH2PO4, 10 mM Tris (pH 7.4) and 10 μM EGTA, supplemented with 0.4 μg valinomicin. […] “Repolarization” corresponded to the recovery of membrane potential after the complete phosphorylation of ADP added. Lag phase reflected the time required to phosphorylate the added ADP. […] Data are means±SEM of five independent experiments.

[5] = tested on: mitochondrial permeability transition pore (mPTP) of RLM; experiment: Mitochondrial permeability transition pore (mPTP) opening, mitochondrial swelling; type: biochemical, rat; conditions: 2.5, 5 and 10 μM, pre-incubated 5 min before calcium, FIG. 7A-C
Method: In an embodiment, the AntiOxCINs effects on mitochondrial permeability transition pore (mPTP) opening were evaluated. In general, less lipophilic AntiOxCINs had no effect on mPTP opening for all tested concentrations (FIG. 7A-C).
In an embodiment, the evaluation of AntiOxCINs functional mitochondrial toxicity profile was performed in rat liver mitochondria (RLM). RLM were prepared by tissue homogenization followed by differential centrifugations in ice-cold buffer containing 250 mM sucrose, 10 mM HEPES (pH 7.4), 1 mM EGTA, and 0.1% fat-free bovine serum albumin. After obtaining a crude mitochondrial preparation, pellets were washed twice and resuspended in washing buffer (250 mM sucrose and 10 mM HEPES, pH 7.4). The protein concentration was determined by the biuret assay using BSA as a standard.
In an embodiment, the effect of AntiOxCINs on mitochondrial permeability transition pore opening were measured as follows: mitochondrial swelling was estimated by measuring the alterations of light scattered from a mitochondrial suspension, as monitored spectrophotometrically at 540 nm. Increasing concentrations of AntiOxCINs (2.5-10 μM) were added to the reaction medium (200 mM sucrose, 1 mM KH2PO4, 10 mM Tris (pH 7.4), 5 mM succinate and 10 μM EGTA supplemented with 1.5 μM rotenone), in the presence of RLM (1 mg), and allowed to incubate for a 5 min period before the assay. The experiments were initiated by the addition of a suitable concentration of Ca^2+ (15-50 μM), titrated every day. […] The reaction was stirred continuously and the temperature maintained at 37° C. Data are means±SEM of three independent experiments and are expressed as Aabsorbance at 540 nm.

## COC1=C(OC)C(=O)C(CCCCCCCCCC[P+](c2ccccc2)(c2ccccc2)c2ccccc2)=C(C)C1=O.CS(=O)(=O)[O-] [MitoQ, [10-(4,5-dimethoxy-2-methyl-3,6-dioxo-1,4-cyclohexadien-1-yl)decyl]triphenylphosphonium methanesulfonate, reference compound]
[1]
  iron (II) chelation: not shared by MitoQ
[2]
  prevention of mitochondria lipid peroxidation (TBARS levels): effectively inhibited lipid peroxidation
[3]; 2.5 μM, FIG. 6A and Table 2
  toxicity on the mitochondrial bioenergetic apparatus of RLM: caused toxicity
[3]; concentrations up to 5 μM, glutamate/malate, FIG. 6A
  effect on respiratory states: increase on state 2, state 4 and oligomycin-inhibited respiration and a decrease on state 3 and FCCP-uncoupled respiration
[3]; glutamate/malate, 2.5 μM
  ADP/O: 2.2 ± 0.1
  RCR (respiratory control ratio, state 3/state 4): 4.2 ± 0.6
[3]; glutamate/malate, 5 μM
  ADP/O: 1.9 ± 0.1
  RCR (respiratory control ratio, state 3/state 4): 2.7 ± 0.3
[3]; glutamate/malate, 10 μM
  ADP/O: 2.0 ± 0.2
  RCR (respiratory control ratio, state 3/state 4): 1.3 ± 0.1
[3]; succinate, highest concentration tested, FIG. 6A
  coupling of RLM: completely uncoupled
[3]; succinate, 2.5 μM
  ADP/O: 1.3 ± 0.1
  RCR (respiratory control ratio, state 3/state 4): 2.6 ± 0.2
[3]; succinate, 5 μM
  ADP/O: 1.3 ± 0.1
  RCR (respiratory control ratio, state 3/state 4): 2.4 ± 0.2
[4]; 10 μM
  repolarization after ADP-induced depolarization: no repolarization occurred
[4]; glutamate/malate, 2.5 μM
  ADP-induced depolarization (ΔΨ in - mV): 173.0 ± 9.3 mV
  Lag Phase: 86.5 ± 5.6 s
  Maximum potential (ΔΨ in - mV): 195.7 ± 10.8 mV
  Repolarization Potential (ΔΨ in - mV): 191.1 ± 11.7 mV
[4]; glutamate/malate, 5 μM
  ADP-induced depolarization (ΔΨ in - mV): 173.5 ± 8.9^ mV
  Lag Phase: 84.5 ± 7.1 s
  Maximum potential (ΔΨ in - mV): 188.3 ± 10.6 mV
  Repolarization Potential (ΔΨ in - mV): 185.0 ± 9.4 mV
[4]; glutamate/malate, 10 μM
  Maximum potential (ΔΨ in - mV): 113.9 ± 10.2 mV
[4]; succinate, 2.5 μM
  ADP-induced depolarization (ΔΨ in - mV): 162.1 ± 6.0 mV
  Lag Phase: 104.8 ± 9.9 s
  Maximum potential (ΔΨ in - mV): 181.6 ± 8.3 mV
  Repolarization Potential (ΔΨ in - mV): 182.7 ± 9.1 mV
[4]; succinate, 5 μM
  ADP-induced depolarization (ΔΨ in - mV): 157.0 ± 6.4^ mV
  Lag Phase: 92.6 ± 19.4 s
  Maximum potential (ΔΨ in - mV): 170.2 ± 8.1 mV
  Repolarization Potential (ΔΨ in - mV): 170.8 ± 8.7 mV
[4]; succinate, 10 μM
  Maximum potential (ΔΨ in - mV): 108.9 ± 3.8 mV
[5]
  effect on calcium-dependent mPTP opening: no effect in mPTP induction

## O=C(O)CN(CCN(CC(=O)O)CC(=O)O)CC(=O)O [EDTA, ethylenediaminetetracetic acid, reference compound]
[1]
  iron (II) chelation: able to chelate all the iron in solution
